Data on two molecules can be found in patent US20190240225A1, “COMBINATION OF A BCL-2 INHIBITOR AND A MCL-1 INHIBITOR, USES AND PHARMACEUTICAL COMPOSITIONS THEREOF” (LES LABORATOIRES SERVIER, priority 2016, published 2019).

Assay type in all cases: cell-based, human
Test [1] has as its system AMO1. Kind of test: MTT cell viability assay, myeloma cell line. The settings on record: Homo sapiens, single agent, read-out: IC50. How it is done: (§1) Cell lines: Human myeloma cell lines (HMCLs) were derived from primary myeloma cells cultured in RPMI 1640 medium supplemented with 5% fetal calf serum from and 3 ng/mL recombinant IL-6 for IL-6 dependent cell lines. HMCLs are representative of phenotypic and genomic heterogeneity and the variability in patient's response to therapy.
(§2) MTT assay: Cell viability is measured using MTT (3-(4,5-dimethylthiazol-2-yl)-2,5-diphenyltetrazolium bromide) colorimetric survival assay. Cells are incubated with compounds in 96-well plates containing a final volume of 100 μl/well time. (2R)-2-{[(5Sa)-5-{3-chloro-2-methyl-4-[2-(4-methylpiperazin-1-yl)ethoxy]phenyl}-6-(5-fluorofuran-2-yl)thieno[2,3-d]pyrimidin-4-yl]oxy}-3-(2-{[1-(2,2,2-trifluoroethyl)-1H-pyrazol-5-yl]methoxy}phenyl)propanoic acid (Compound 2) is used at 9 different concentrations accordingly to single agent sensitivity. N-(4-hydroxyphenyl)-3-{6-[((3S)-3-(4-morpholinylmethyl)-3,4-dihydro-2(1H)-isoquinolinyl)carbonyl]-1,3-benzodioxol-5-yl}-N-phenyl-5,6,7,8-tetrahydro-1-indolizine carboxamide hydrochloride (Compound 1, HCl) is used at a fixed dose—1 μM. At the end of each treatment, cells are incubated with 1 mg/mL MTT (50 μl MTT solution 2.5 mg/ml for each well) at 37° C. for 3 hours allowing the MTT to be metabolized. Lysis buffer (100 μl Lysis buffer: DMF (2:3)/SDS (1:3)) is added into each well to dissolve formazan cristals and after 18 h of incubation, absorbance in viable cells is measured at 570 nm using a spectrophotometer.
(§3) The sensitivity of 27 human multiple myeloma cell lines to Compound 1, Compound 2 or to Compound 2 in the presence of 1 μM of Compound 1 was analyzed by using MTT cell viability assay. 50% inhibitory concentrations (IC50, in nM) were determined.

In test [2] the test system is ANBL6. Kind of test: MTT cell viability assay, myeloma cell line. The settings on record: Homo sapiens, ANBL-6, single agent, read-out: IC50. How it is done:
as §1, §2, §3
(Tetrazolium assays rely on reduction of a dye to a coloured formazan, in cell work by metabolically active cells.)

Test [3] relates to BCN. Description: MTT cell viability assay, myeloma cell line. The settings on record: Homo sapiens, single agent, read-out: IC50. How it is done:
as §1, §2, §3

The test system of test [4] is JIM3. Kind of test: MTT cell viability assay, myeloma cell line. The conditions noted are these: Homo sapiens, single agent, read-out: IC50. How it is done: as §1, §2, §3
Test [5] deals with JJN3. Kind of test: MTT cell viability assay, myeloma cell line. The settings on record: Homo sapiens, JJN-3, single agent, read-out: IC50. On the procedure:
as §1, §2, §3

Test [6] has as its system KMM1. Description: MTT cell viability assay, myeloma cell line. The settings on record: Homo sapiens, KMM-1, single agent, read-out: IC50. On the procedure: as §1, §2, §3
Test [7] deals with KMS11. Kind of test: MTT cell viability assay, myeloma cell line. The settings on record: Homo sapiens, KMS-11, single agent, read-out: IC50. How it is done:
as §1, §2, §3

Test [8] deals with KMS12BM. Description: MTT cell viability assay, myeloma cell line. The conditions noted are these: Homo sapiens, KMS-12-BM, single agent, read-out: IC50. On the procedure:
as §1, §2, §3

Test [9] has as its system L363. Description: MTT cell viability assay, myeloma cell line. The settings on record: Homo sapiens, L-363, single agent, read-out: IC50. How it is done:
as §1, §2, §3

Test [10] relates to LP1. Description: MTT cell viability assay, myeloma cell line. The conditions noted are these: Homo sapiens, LP-1, single agent, read-out: IC50. On the procedure:
as §1, §2, §3

Test [11] has as its system MM1S. Kind of test: MTT cell viability assay, myeloma cell line. The settings on record: Homo sapiens, MM1.S, single agent, read-out: IC50. On the procedure:
as §1, §2, §3

Test [12] concerns NAN1. Description: MTT cell viability assay, myeloma cell line. The conditions noted are these: Homo sapiens, single agent, read-out: IC50. On the procedure:
as §1, §2, §3

Test [13] has as its system NAN3. Description: MTT cell viability assay, myeloma cell line. The settings on record: Homo sapiens, single agent. How it is done:
as §1, §2, §3

The test system of test [14] is NAN6. Kind of test: MTT cell viability assay, myeloma cell line. The conditions noted are these: Homo sapiens, single agent, read-out: IC50. On the procedure:
as §1, §2, §3

The test system of test [15] is NAN8. Kind of test: MTT cell viability assay, myeloma cell line. The settings on record: Homo sapiens, single agent, read-out: IC50. On the procedure:
as §1, §2, §3

For test [16], the system named is NAN9. Kind of test: MTT cell viability assay, myeloma cell line. The settings on record: Homo sapiens, single agent, read-out: IC50. How it is done:
as §1, §2, §3

In test [17] the test system is NCI-H929. Kind of test: MTT cell viability assay, myeloma cell line. The conditions noted are these: Homo sapiens, single agent, read-out: IC50. On the procedure:
as §1, §2, §3

The subject of test [18] is OPM2. Kind of test: MTT cell viability assay, myeloma cell line. The conditions noted are these: Homo sapiens, OPM-2, single agent, read-out: IC50. How it is done: as §1, §2, §3
In test [19] the test system is RPMI8226. Kind of test: MTT cell viability assay, myeloma cell line. The settings on record: Homo sapiens, RPMI-8226, single agent, read-out: IC50. How it is done: as §1, §2, §3
Test [20] concerns SBN. Description: MTT cell viability assay, myeloma cell line. The settings on record: Homo sapiens, single agent, read-out: IC50. How it is done:
as §1, §2, §3

Test [21] has as its system U266. Description: MTT cell viability assay, myeloma cell line. The conditions noted are these: Homo sapiens, U-266, single agent, read-out: IC50. On the procedure: as §1, §2, §3
Test [22] concerns XG11. Description: MTT cell viability assay, myeloma cell line. The settings on record: Homo sapiens, single agent, read-out: IC50. On the procedure: as §1, §2, §3
Test [23] relates to XG1. Kind of test: MTT cell viability assay, myeloma cell line. The settings on record: Homo sapiens, single agent, read-out: IC50. How it is done: as §1, §2, §3
Test [24] has as its system XG2. Kind of test: MTT cell viability assay, myeloma cell line. The settings on record: Homo sapiens, single agent, read-out: IC50. On the procedure:
as §1, §2, §3

Test [25] deals with XG3. Description: MTT cell viability assay, myeloma cell line. The settings on record: Homo sapiens, single agent, read-out: IC50. How it is done: as §1, §2, §3
Test [26] concerns XG6. Description: MTT cell viability assay, myeloma cell line. The settings on record: Homo sapiens, single agent, read-out: IC50. On the procedure:
as §1, §2, §3

Test [27] deals with XG7. Description: MTT cell viability assay, myeloma cell line. The conditions noted are these: Homo sapiens, single agent, read-out: IC50. How it is done:
as §1, §2, §3

In test [28] the test system is primary AML blasts. Description: Cell viability (sytox blue, flow cytometry) of primary AML patient samples, LC50. The conditions noted are these: 54 primary AML samples; 48 h; RPMI/15% FCS; combination at 1:1. For orientation: A flow cytometer gives signals particle by particle.
Method: Primary AML patient samples: Bone marrow or peripheral blood samples from patients with AML were collected after informed consent in accordance with guidelines approved by The Alfred Hospital Human research ethics committees. Mononuclear cells were isolated by Ficoll-Paque (GE Healthcare, VIC, Aus) density-gradient centrifugation, followed by red cell depletion in ammonium chloride (NH4Cl) lysis buffer at 37° C. for 10 minutes. Cells were then re-suspended in phosphate-buffered saline containing 2% Fetal Bovine serum (Sigma, NSW, Aus). Mononuclear cells were then suspended in RPMI-1640 (GIBCO VIC, Aus) medium containing penicillin and streptomycin (GIBCO) and heat inactivated fetal bovine serum 15% (Sigma).
Cell Viability: Freshly purified mononuclear cells from AML patient samples were adjusted to a concentration of 2.5×10^5/ml and 100 μL of cells aliquoted per well into 96 well plates (Sigma). […] For combinations assays, drugs were added at a 1:1 ratio from 1 nM to 10 μM and incubated at 37° C. 5% CO2. Cells were then stained with sytox blue nucleic acid stain (Invitrogen, VIC, Aus) and fluorescence measured by flow cytometric analysis using the LSR-II Fortessa (Becton Dickinson, NSW, Aus). FACSDiva software was used for data collection, and FlowJo software for analysis. Blast cells were gated using forward and side scatter properties. […]

As for `Cl.O=C(c1cc(-c2cc3c(cc2C(=O)N2Cc4ccccc4C[C@H]2CN2CCOCC2)OCO3)n2c1CCCC2)N(c1ccccc1)c1ccc(O)cc1` [Compound 1, HCl, N-(4-hydroxyphenyl)-3-{6-[((3S)-3-(4-morpholinylmethyl)-3,4-dihydro-2(1H)-isoquinolinyl)carbonyl]-1,3-benzodioxol-5-yl}-N-phenyl-5,6,7,8-tetrahydro-1-indolizine carboxamide hydrochloride], the IC50 (commonly the concentration at which inhibition is half-maximal) in test [1] is 8.61 µM; in [2], 1.91 µM; in test [3], 22.2 µM; in test [4] it was above 30 µM; in [5], 2.69 µM; in test [6], 23.9 µM. Moreover, the IC50 in test [7] amounted to 10.5 µM; in [8], 1.39 µM; in [9], 7.58 µM; in test [10] it was 9.77 µM; in test [11], 21.4 µM; in test [12], 6.66 µM. Besides, the IC50 in test [13] was 8.24 µM; in test [14], 4.07 µM; in test [15] it was 9.1 µM; in [16], 23.2 µM; in test [17], 15.7 µM; in test [18] it was 6.46 µM. Besides, the IC50 in test [19] is 3.2 µM; in [20], 21.3 µM; in test [21] it was above 30 µM; in [22] it was 7.91 µM; in test [23], 9.78 µM; in [24], 15.3 µM. The half-maximal inhibitory concentration (IC50) was found to be 7.22 µM in test [25], 8.54 µM in test [26] and 18.1 µM in test [27].

`O=C(c1cc(-c2cc3c(cc2C(=O)N2Cc4ccccc4C[C@H]2CN2CCOCC2)OCO3)n2c1CCCC2)N(c1ccccc1)c1ccc(O)cc1` [Compound 1, N-(4-hydroxyphenyl)-3-{6-[((3S)-3-(4-morpholinylmethyl)-3,4-dihydro-2(1H)-isoquinolinyl)carbonyl]-1,3-benzodioxol-5-yl}-N-phenyl-5,6,7,8-tetrahydro-1-indolizine carboxamide]: the “proportion of primary AML samples highly sensitive (LC50<10 nM)” value in [28] is listed as “Approximately 20%”.
